Reference: US20260297109A1, “COMPOUNDS AS SUMO ACTIVATING ENZYME INHIBITORS” (WIGEN BIOMEDICINE TECHNOLOGY (SHANGHAI) CO., LTD., priority 2022, published 2026)

biological target: T1, SAE (Homo sapiens, UniProt Q9UBT2); assay: SUMO IF: in vitro inhibitory activity assay against SAE in HCT116 cells (SUMO-2/3 immunofluorescence); assay type: cell-based; conditions: class symbols, 6 h at 37° C.
T1 construct: endogenous in cells; host or cells: HCT116
T1 sequence (Q9UBT2 1-640): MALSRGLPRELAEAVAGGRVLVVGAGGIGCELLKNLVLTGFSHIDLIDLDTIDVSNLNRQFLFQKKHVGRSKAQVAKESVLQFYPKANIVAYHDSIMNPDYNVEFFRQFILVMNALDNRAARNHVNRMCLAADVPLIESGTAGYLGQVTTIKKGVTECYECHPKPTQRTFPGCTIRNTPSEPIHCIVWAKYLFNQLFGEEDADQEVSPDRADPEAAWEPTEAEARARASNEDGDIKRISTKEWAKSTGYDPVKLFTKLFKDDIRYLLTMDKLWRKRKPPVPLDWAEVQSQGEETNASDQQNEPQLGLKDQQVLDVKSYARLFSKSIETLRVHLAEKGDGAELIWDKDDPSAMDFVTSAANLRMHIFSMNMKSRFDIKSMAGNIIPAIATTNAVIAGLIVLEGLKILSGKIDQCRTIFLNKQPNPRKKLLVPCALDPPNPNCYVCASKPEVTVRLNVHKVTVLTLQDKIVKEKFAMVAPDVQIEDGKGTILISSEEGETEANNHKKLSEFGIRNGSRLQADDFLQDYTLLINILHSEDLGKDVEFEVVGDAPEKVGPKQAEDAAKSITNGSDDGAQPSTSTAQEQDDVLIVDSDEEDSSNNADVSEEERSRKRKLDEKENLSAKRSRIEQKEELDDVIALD
T1 sequence (Q9UBE0 1-346): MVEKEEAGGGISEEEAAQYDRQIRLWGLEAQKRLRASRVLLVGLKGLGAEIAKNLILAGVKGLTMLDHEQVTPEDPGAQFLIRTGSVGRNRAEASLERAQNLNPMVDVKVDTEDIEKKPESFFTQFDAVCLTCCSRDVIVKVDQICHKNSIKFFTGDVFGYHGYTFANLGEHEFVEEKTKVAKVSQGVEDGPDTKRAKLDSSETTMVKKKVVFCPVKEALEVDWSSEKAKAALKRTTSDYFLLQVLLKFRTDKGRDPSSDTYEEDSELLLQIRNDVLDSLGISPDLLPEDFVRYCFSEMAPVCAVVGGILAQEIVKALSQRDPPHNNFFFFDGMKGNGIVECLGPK
Protocol: Biological Example 1. In Vitro Inhibitory Activity Assay of Compounds of the Present Disclosure Against SAE
HCT116 cells were seeded into a 96-well black transparent bottom plate at about 20000/well with 90 μL per well. The cells were incubated at 37° C. overnight for 24 h. The test compounds were 10-fold diluted to give a final concentration, and 10 μL of the diluted compounds was added to each well of the cell culture plate. The mixture was incubated at 37° C. for 6 h. The cells were then washed gently, the culture medium was discarded, and the cells were washed once with 200 μL of 0.1% PBST. 50 μL of 4% PFA was added to each well, and the cells were immobilized at room temperature for 20 min, and then washed with PBS 2-3 times. 50 μL of 0.2% Triton X-100 was added to each well, and the cells were left to stand at room temperature for 15 min and washed with 0.1% PBST 3 times. 100 μL of 3% BSA (0.6 g BSA+20 mL PBS) was added to each well, and the mixture was blocked at 37° C. for 30 min. After the blocking was completed, the liquid was removed and a primary antibody (SUMO-2/3 (18H8) Rabbit mAb, 1:400 dilution) was prepared with 1% BSA. 30 μL of the diluted primary antibody was added to each well, and the mixture was incubated at 4° C. overnight. The cells were washed 3 times with 200 μL of 0.1% PBST. A FITC secondary antibody (Fluorescein (FITC)-conjugated Affinipure Goat Anti-Rabbit IgG (H+L), 1:300 dilution) was further prepared with 1% BSA, and 40 μL of the diluted secondary antibody was added to each well. The mixture was incubated at room temperature in the dark for 2 h, and then the cells were washed 4 times with 0.1% PBST. The fluorescence signal of the sample was detected and compared to the DMSO group, and the inhibition rate and IC50 were calculated.

Row | SMILES | IC50 [nM]
1 | NS(=O)(=O)OC[C@H]1[C@H](F)[C@@H](Nc2ncncc2C(=O)c2cc3c(s2)COCC32NCCc3ccc(F)cc32)C[C@@H]1O (stereo partly shown) [Compound 100] | 50 to 200
2 | CN1Cc2sc(C(=O)c3cncnc3N[C@H]3C[C@H](O)[C@@H](COS(N)(=O)=O)[C@@H]3F)cc2C2(C1)NCCc1ccc(Cl)cc12 (stereo partly shown) [Compound 576] | ≤ 50
3 | Nc1sc(C(=O)c2cncnc2N[C@H]2C[C@H](O)[C@@H](COS(N)(=O)=O)[C@@H]2F)cc1C1NCCc2ccc(Cl)cc21 (stereo partly shown) [Compound 264] | 50 to 200
4 | NS(=O)(=O)OC[C@H]1[C@H](F)[C@@H](Nc2ncncc2C(=O)c2cc3c(s2)CCC[C@]32OCCc3ccc(Cl)cc32)C[C@@H]1O [Compound 686] | ≤ 50
5 | NS(=O)(=O)CC[C@H]1[C@H](F)[C@@H](Nc2ncncc2C(=O)c2cc3c(s2)CCC[C@@]32NCCc3ccc(Cl)cc32)C[C@@H]1O [Compound 637] | > 200
6 | NS(=O)(=O)OC[C@H]1[C@H](F)[C@@H](Nc2ncncc2C(=O)c2cc3c(s2)OC[C@@]32NCCc3ccc(Cl)cc32)C[C@@H]1O [Compound 146] | > 200
7 | NS(=O)(=O)OC[C@H]1[C@H](F)[C@@H](Nc2ncncc2C(=O)c2cc3c(s2)CCC32NCCc3ccccc32)C[C@@H]1O (stereo partly shown) [Compound 127] | > 200
8 | NS(=O)(=O)OC[C@H]1[C@H](F)[C@@H](Nc2ncncc2C(=O)c2cc3c(s2)CCCC32NCCc3cnc(Cl)cc32)C[C@@H]1O (stereo partly shown) [Compound 597] | 50 to 200
9 | NS(=O)(=O)OC[C@H]1[C@H](F)[C@@H](Nc2ncncc2C(=O)c2cc3c(s2)OC[C@]32NCCc3ccc(F)cc32)C[C@@H]1O [Compound 144] | 50 to 200
10 | Cc1sc(C(=O)c2cncnc2N[C@H]2C[C@H](O)[C@@H](COS(N)(=O)=O)[C@@H]2F)cc1C1NC2(CC2)Cc2ccc(Cl)cc21 (stereo partly shown) [Compound 266] | 50 to 200
11 | Cc1ccc2c(c1)[C@@]1(CCCc3sc(C(=O)c4cncnc4N[C@H]4C[C@H](O)[C@@H](COS(N)(=O)=O)[C@@H]4F)cc31)NCC2 [Compound 666] | 50 to 200
12 | NS(=O)(=O)OC[C@H]1[C@H](F)[C@@H](Nc2ncncc2C(=O)c2cc3c(s2)CCC[C@@]32NCCc3ccccc32)C[C@@H]1O [Compound 86] | > 200
13 | NS(=O)(=O)OC[C@H]1[C@H](F)[C@@H](Nc2ncncc2C(=O)c2cc3c(s2)CC[C@]32NCCc3cc(Cl)c(F)cc32)C[C@@H]1O [Compound 698] | ≤ 50
14 | Cc1sc(C(=O)c2cncnc2N[C@H]2C[C@H](O)[C@@H](COS(N)(=O)=O)[C@@H]2F)cc1[C@H]1OCCc2ccc(Cl)cc21 [Compound 989] | > 200
15 | CC1Cc2ccc(Cl)cc2[C@@]2(CCCc3sc(C(=O)c4cncnc4N[C@H]4C[C@H](O)[C@@H](COS(N)(=O)=O)[C@@H]4F)cc32)N1 (stereo partly shown) [Compound 1025] | 50 to 200
16 | NS(=O)(=O)OC[C@H]1[C@H](F)[C@@H](Nc2ncncc2C(=O)c2cc3c(s2)CN(CC(F)(F)F)CC32NCCc3ccc(Cl)cc32)C[C@@H]1O (stereo partly shown) [Compound 651] | ≤ 50
17 | NS(=O)(=O)OC[C@H]1[C@H](F)[C@@H](Nc2ncncc2C(=O)c2cc3c(s2)CCCC32NCCc3cc(Cl)ncc32)C[C@@H]1O (stereo partly shown) [Compound 119] | 50 to 200
18 | NS(=O)(=O)OC[C@H]1[C@H](F)[C@@H](Nc2ncncc2C(=O)c2cc3c(s2)CSC[C@@]32NCCc3ccc(Cl)nc32)C[C@@H]1O [Compound 610] | > 200

Row | SMILES | IC50 [nM]
19 | COc1cc2c(cc1Cl)[C@@]1(CCCc3sc(C(=O)c4cncnc4N[C@H]4C[C@H](O)[C@@H](COS(N)(=O)=O)[C@@H]4F)cc31)NCC2 [Compound 675] | 50 to 200
20 | [2H]C1([2H])Cc2ccc(Cl)cc2[C@@]2(C=Cc3sc(C(=O)c4cncnc4N[C@H]4C[C@H](O)[C@@H](COS(N)(=O)=O)[C@@H]4F)cc32)N1 [Compound 701] | ≤ 50
21 | NS(=O)(=O)OC[C@H]1[C@H](F)[C@@H](Nc2ncncc2C(=O)c2cc3c(s2)CSCC32NCCc3ncc(Cl)cc32)C[C@@H]1O (stereo partly shown) [Compound 612] | 50 to 200
22 | NS(=O)(=O)OC[C@H]1[C@H](F)[C@@H](Nc2ncncc2C(=O)c2cc3c(s2)CC[C@]32NCCc3cc(Cl)ncc32)C[C@@H]1O [Compound 700] | 50 to 200
23 | NS(=O)(=O)OC[C@H]1[C@H](F)[C@@H](Nc2ncncc2C(=O)c2cc3c(s2)COC[C@]32NCCc3ccc(Cl)c(Cl)c32)C[C@@H]1O [Compound 560] | 50 to 200
24 | Cc1sc(C(=O)c2cncnc2N[C@H]2C[C@H](O)[C@@H](COS(N)(=O)=O)[C@@H]2F)cc1C1NCCc2cnc(Cl)cc21 (stereo partly shown) [Compound 255] | 50 to 200
25 | NS(=O)(=O)OC[C@H]1[C@H](F)[C@@H](Nc2ncncc2C(=O)c2cc3c(s2)CC[C@]32NCCc3cc(F)c(F)cc32)C[C@@H]1O [Compound 691] | ≤ 50
26 | Cc1sc(C(=O)c2cncnc2N[C@H]2C[C@H](O)[C@@H](COS(N)(=O)=O)[C@@H]2F)cc1C1NCCc2cc(Cl)c(F)cc21 (stereo partly shown) [Compound 252] | 50 to 200
27 | NS(=O)(=O)OC[C@H]1[C@H](F)[C@@H](Nc2ncncc2C(=O)c2cc3c(s2)COC[C@]32NCCc3cc(Cl)c(Cl)cc32)C[C@@H]1O [Compound 563] | 50 to 200
28 | NS(=O)(=O)OC[C@H]1[C@H](F)[C@@H](Nc2ncncc2C(=O)c2cc3c(s2)CCCC32NCCc3ccc(Cl)cc32)C[C@@H]1O (stereo partly shown) [Compound 88] | ≤ 50
29 | Cc1sc(C(=O)c2cncnc2N[C@H]2C[C@H](O)[C@@H](COS(N)(=O)=O)[C@@H]2F)cc1C1NCCc2ccccc21 (stereo partly shown) [Compound 229] | > 200
30 | NS(=O)(=O)OC[C@H]1[C@H](F)[C@@H](Nc2ncncc2C(=O)c2cc3c(s2)CC[C@@]32OCCc3ccccc32)C[C@@H]1O [Compound 745] | > 200
31 | NS(=O)(=O)OC[C@H]1[C@H](F)[C@@H](Nc2ncncc2C(=O)c2cc3c(s2)C=C[C@@]32OCCc3ccc(F)cc32)C[C@@H]1O [Compound 757] | > 200
32 | NS(=O)(=O)OC[C@H]1[C@H](F)[C@@H](Nc2ncncc2C(=O)c2cc3c(s2)COC[C@]32NCCc3ccccc32)C[C@@H]1O [Compound 99] | 50 to 200
33 | C#CCN1Cc2sc(C(=O)c3cncnc3N[C@H]3C[C@H](O)[C@@H](COS(N)(=O)=O)[C@@H]3F)cc2C2(C1)NCCc1ccc(Cl)cc12 (stereo partly shown) [Compound 657] | ≤ 50
34 | NS(=O)(=O)OC[C@H]1[C@H](F)[C@@H](Nc2ncncc2C(=O)c2cc3c(s2)CC[C@]32NCCc3ccc(C4CC4)cc32)C[C@@H]1O [Compound 688] | 50 to 200
35 | NS(=O)(=O)CC[C@H]1[C@H](F)[C@@H](Nc2ncncc2C(=O)c2cc3c(s2)C=C[C@]32NCCc3ccc(Cl)cc32)C[C@@H]1O [Compound 640] | 50 to 200
36 | NS(=O)(=O)OC[C@H]1[C@H](F)[C@@H](Nc2ncncc2C(=O)c2cc3c(s2)CSC[C@@]32NCCc3ncc(Cl)cc32)C[C@@H]1O [Compound 613] | > 200

same assay, conditions: numeric values, 6 h at 37° C.

Row | SMILES | IC50 [nM]
37 | NS(=O)(=O)OC[C@H]1[C@H](F)[C@@H](Nc2ncncc2C(=O)c2cc3c(s2)CN(CC(F)(F)F)C[C@@]32NCCc3ccc(Cl)cc32)C[C@@H]1O [Compound 652] | > 1000
38 | C#CCN1Cc2sc(C(=O)c3cncnc3N[C@H]3C[C@H](O)[C@@H](COS(N)(=O)=O)[C@@H]3F)cc2[C@@]2(C1)NCCc1ccc(Cl)cc12 [Compound 658] | > 1000
39 | [2H]C1([2H])Cc2ccc(Cl)cc2[C@@]2(CCCc3sc(C(=O)c4cncnc4N[C@H]4C[C@H](O)[C@@H](COS(N)(=O)=O)[C@@H]4F)cc32)N1 [Compound 662] | 23.5
40 | NS(=O)(=O)OC[C@H]1[C@H](F)[C@@H](Nc2ncncc2C(=O)c2cc3c(s2)CSC[C@]32NCCc3ccc(Cl)cc32)C[C@@H]1O [Compound 302] | 21.5
